Experimental data published in US8673894B2 (Hoffmann-La Roche Inc., priority 2010, dated 2014).
Structures can show the parent of a compound that is named as a salt.

Experiments:
Aβ40 = assay: Cellular Aβ-lowering assay; type: cell-based; settings: HEK293 cells stably expressing human APP695, Aβ40 in supernatant by ELISA after 18-20 hrs; read-out: Cellular assay Abeta40 IC50
Method: Cellular Aβ-Lowering Assay:
Human HEK293 cells which are stably transfected with a vector expressing a cDNA of the human APP wt gene (APP695) were used to assess the potency of the compounds in a cellular assay. The cells were seeded in 96-well microtiter plates in cell culture medium (Iscove, plus 10% (v/v) fetal bovine serum, glutamine, penicillin/streptomycin) to about 80% confluence and the compounds were added at a 10× concentration in 1/10 volume of medium without FCS containing 8% DMSO (final concentration of DMSO was kept at 0.8% v/v). After 18-20 hrs incubation at 37° C. and 5% CO2 in a humidified incubator the culture supernatant was harvested for the determination of Aβ40 concentrations. 96well ELISA plates (e.g., Nunc MaxiSorb) were coated with monoclonal antibody which specifically recognize the C-terminal end of Aβ40 (Brockhaus et al., NeuroReport 9, 1481-1486; 1998). After blocking of non-specific binding sites with e.g. 1% BSA and washing, the culture supernatants were added in suitable dilutions together with a horseradish peroxidase-coupled Aβ detection antibody (e.g., antibody 4G8, Senetek, Maryland Heights, Mo.) and incubated for 5 to 7 hrs. Subsequently the wells of the microtiter plate were washed extensively with Tris-buffered saline containing 0.05% Tween 20 and the assay was developed with tetramethylbenzidine/H2O2 in citric acid buffer. After stopping the reaction with one volume 1 N H2SO4 the reaction was measured in an ELISA reader at 450 nm wavelength. The concentrations of Aβ in the culture supernatants were calculated from a standard curve obtained with known amounts of pure Aβ peptide.

[1] = biological target: T1, endogenous cellular BACE2 (Rattus norvegicus, UniProt Q6IE75); assay: Assay for BACE inhibition by measuring cellular TMEM27 cleavage; type: cell-based; settings: INS-TMEM27 (INS1e-derived) cells, shed human TMEM27 in supernatant by ELISA
T1 construct: endogenous cellular BACE2 in the Ins1e rat cell line; endogenous in cells; host or cells: INS-TMEM27 (INS1e-derived rat insulinoma cell line with doxycycline-inducible full-length human TMEM27)
T1 sequence (Q6IE75 63-514): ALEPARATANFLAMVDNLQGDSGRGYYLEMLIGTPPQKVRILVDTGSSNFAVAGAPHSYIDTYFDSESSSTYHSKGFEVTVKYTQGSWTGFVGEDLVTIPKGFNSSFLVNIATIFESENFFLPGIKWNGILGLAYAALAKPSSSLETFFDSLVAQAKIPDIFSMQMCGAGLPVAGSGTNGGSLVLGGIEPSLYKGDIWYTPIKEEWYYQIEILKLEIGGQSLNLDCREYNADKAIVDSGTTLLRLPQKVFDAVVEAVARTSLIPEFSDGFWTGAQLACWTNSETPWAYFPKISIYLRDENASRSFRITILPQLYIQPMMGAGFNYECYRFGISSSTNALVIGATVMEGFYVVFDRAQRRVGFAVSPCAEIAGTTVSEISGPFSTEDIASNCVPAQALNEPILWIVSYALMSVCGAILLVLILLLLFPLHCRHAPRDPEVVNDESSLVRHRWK
Excerpt: Assay for BACE Inhibition by Measuring Cellular TMEM27 Cleavage:
The assay uses the principle of inhibition of human TMEM27 cleavage by endogenous cellular BACE2 in the Ins1e rat cell line and shedding from the cell surface into the culture medium, followed by detection in an ELISA assay. Inhibition of BACE2 prevents the cleavage and shedding in a dose-dependent manner.
The stable cell line “INS-TMEM27” represents an INS1e-derived cell line with inducible expression (using the TetOn system) of full-length hTMEM27 in a doxycycline-dependent manner. The cells are cultured throughout the experiment in RPMI1640+ Glutamax (Invitrogen) Penicillin/Streptomycin, 10% Fetal bovine serum, […], […], 100 micrograms/ml G418 and 100 microgram/ml hygromycin and are grown inadherent culture at 37° C. in a standard CO2 cell culture incubator.
INS-TMEM27 cells are seeded in 96-well plates. After 2 days in culture, BACE2 inhibitor is added in a range of concentrations as required by the assay and after a further two hours, doxycycline is added to a final concentration of 500 ng/ml. The cells are incubated for a further 46 hours and the supernatant harvested for detection of shed TMEM27.
An ELISA assay (using a pair of mouse anti-human-TMEM27 antibodies, raised against the extracellular domain of TMEM27) is used for detection of TMEM27 in the culture medium. An EC50 for BACE2 inhibition is calculated using the ELISA readout for each inhibitor concentration with standard curve-fitting software such as XLFit for the Excel spreadsheet program.

SMILES	IC50 (Aβ40) [nM]	IC50 [1] [nM]
CC1(C)C[C@@](C)(c2cc(NC(=O)C3(C(F)(F)F)CC3)ccc2F)N=C(N)CO1 [Example 20, 1-Trifluoromethyl-cyclopropanecarboxylic acid [3-((S)-3-amino-5,7,7-trimethyl-2,5,6,7-tetrahydro-[1,4]oxazepin-5-yl)-4-fluoro-phenyl]-amide]	220	38
C[C@]1(c2cc(NC(=O)c3ccc(F)cn3)ccc2F)N=C(N)COC[C@@H]1F [Example 62, N-(3-((5R,6R)-3-amino-6-fluoro-5-methyl-2,5,6,7-tetrahydro-1,4-oxazepin-5-yl)-4-fluorophenyl)-5-fluoropicolinamide]	1.8	1
CCc1n[nH]c(C(=O)Nc2ccc(F)c([C@@]3(CC)N=C(N)COCC3(F)F)c2)c1C [Example 93, (R)-N-(3-(3-Amino-5-ethyl-6,6-difluoro-2,5,6,7-tetrahydro-1,4-oxazepin-5-yl)-4-fluorophenyl)-3-ethyl-4-methyl-1H-pyrazole-5-carboxamide]	510	155000
C[C@]1(c2cc(NC(=O)c3cnc(Cl)cn3)ccc2F)N=C(N)COCC1(F)F [Example 38, (R)-N-(3-(3-amino-6,6-difluoro-5-methyl-2,5,6,7-tetrahydro-1,4-oxazepin-5-yl)-4-fluorophenyl)-5-chloropyrazine-2-carboxamide formate]	55	170
CC1(C)OCC[C@@](C)(c2cc(NC(=O)c3ccc(F)cn3)ccc2F)N=C1N [Example 50, 5-Fluoro-pyridine-2-carboxylic acid [3-((S)-3-amino-2,2,5-trimethyl-2,5,6,7-tetrahydro-[1,4]oxazepin-5-yl)-4-fluoro-phenyl]-amide]	160	71
NC1=N[C@@]2(c3cccc(NC(=O)c4ccc(Cl)cn4)c3)C[C@H]2COC1 (racemic) [Example 3, 5-Chloro-pyridine-2-carboxylic acid [3-((1SR,7RS)-3-amino-5-oxa-2-aza-bicyclo[5.1.0]oct-2-en-1-yl)-phenyl]-amide]	34	245
CCn1cc(Cl)c(C(=O)Nc2ccc(F)c([C@@]3(CC)N=C(N)COCC3(F)F)c2)n1 [Example 91, (R)-N-(3-(3-Amino-5-ethyl-6,6-difluoro-2,5,6,7-tetrahydro-1,4-oxazepin-5-yl)-4-fluorophenyl)-4-chloro-1-ethyl-1H-pyrazole-3-carboxamide]	1230	453
C[C@]1(c2cc(NC(=O)c3ncccc3OCC(F)(F)F)ccc2F)N=C(N)COC[C@@H]1F [Example 112, N-(3-((5R,6R)-3-amino-6-fluoro-5-methyl-2,5,6,7-tetrahydro-1,4-oxazepin-5-yl)-4-fluorophenyl)-3-(2,2,2-trifluoroethoxy)picolinamide]	69	129
CC[C@]1(c2cc(NC(=O)c3n[nH]cc3Cl)ccc2F)N=C(N)COCC1(F)F [Example 86, (R)-N-(3-(3-Amino-5-ethyl-6,6-difluoro-2,5,6,7-tetrahydro-1,4-oxazepin-5-yl)-4-fluorophenyl)-4-chloro-1H-pyrazole-3-carboxamide]	370	491
CC[C@]1(c2cc(NC3CCCC3)ccc2F)N=C(N)COCC1(F)F [Example 119, (R)-5-(5-(Cyclopentylamino)-2-fluorophenyl)-5-ethyl-6,6-difluoro-2,5,6,7-tetrahydro-1,4-oxazepin-3-amine]	0.8	9.03
C[C@]1(c2cc(NC(=O)c3ccc(Cl)cn3)ccc2F)N=C(N)COCC1(F)F [Example 26, (R)-N-(3-(3-amino-6,6-difluoro-5-methyl-2,5,6,7-tetrahydro-1,4-oxazepin-5-yl)-4-fluorophenyl)-5-chloropicolinamide]	1.3	–
C[C@@]1(c2cc(NC(=O)c3ccc(Cl)cn3)ccc2F)C[C@@H](c2ccccc2)OCC(N)=N1 [Example 69]	5070	–
